Test results published in PubChem BioAssay (NCI).
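These data come from cells grown in 96-well plates and exposed to compound for 48 hours at five concentrations. TGI marks complete inhibition of growth.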

How the values were obtained:
Assay in all cases: NCI tumour cell line growth inhibition, 48 h
786-0 renal = test system: 786-0 renal
A498 renal = test system: A498 renal
A549 NSCLC = test system: A549 NSCLC
ACHN renal = test system: ACHN renal
BT-549 breast = test system: BT-549 breast
CAKI-1 renal = test system: CAKI-1 renal
CCRF-CEM leukemia = test system: CCRF-CEM leukemia
COLO 205 colon = test system: COLO 205 colon
DU-145 prostate = test system: DU-145 prostate
EKVX NSCLC = test system: EKVX NSCLC
HCC-2998 colon = test system: HCC-2998 colon
HCT-116 colon = test system: HCT-116 colon
HCT-15 colon = test system: HCT-15 colon
HL-60(TB) leukemia = test system: HL-60(TB) leukemia
HOP-62 NSCLC = test system: HOP-62 NSCLC
HOP-92 NSCLC = test system: HOP-92 NSCLC
HS 578T breast = test system: HS 578T breast
HT29 colon = test system: HT29 colon
IGROV1 ovarian = test system: IGROV1 ovarian
K-562 leukemia = test system: K-562 leukemia
KM12 colon = test system: KM12 colon
LOX IMVI melanoma = test system: LOX IMVI melanoma
M14 melanoma = test system: M14 melanoma
MALME-3M melanoma = test system: MALME-3M melanoma
MCF7 breast = test system: MCF7 breast
MDA-MB-231 breast = test system: MDA-MB-231 breast
MDA-MB-435 = test system: MDA-MB-435
MDA-N = test system: MDA-N
MOLT-4 leukemia = test system: MOLT-4 leukemia
NCI-H226 lung = test system: NCI-H226 lung
NCI-H23 lung = test system: NCI-H23 lung
NCI-H460 lung = test system: NCI-H460 lung
NCI-H522 lung = test system: NCI-H522 lung
NCI/ADR-RES ovarian = test system: NCI/ADR-RES ovarian
OVCAR-3 ovarian = test system: OVCAR-3 ovarian
OVCAR-8 ovarian = test system: OVCAR-8 ovarian
PC-3 prostate = test system: PC-3 prostate
RPMI-8226 leukemia = test system: RPMI-8226 leukemia
RXF 393 renal = test system: RXF 393 renal
SF-268 CNS = test system: SF-268 CNS
SF-295 CNS = test system: SF-295 CNS
SF-539 CNS = test system: SF-539 CNS
SK-MEL-2 melanoma = test system: SK-MEL-2 melanoma
SK-MEL-28 melanoma = test system: SK-MEL-28 melanoma
SK-MEL-5 melanoma = test system: SK-MEL-5 melanoma
SK-OV-3 ovarian = test system: SK-OV-3 ovarian
SN12C renal = test system: SN12C renal
SNB-19 CNS = test system: SNB-19 CNS
SNB-75 CNS = test system: SNB-75 CNS
SR leukemia = test system: SR leukemia
SW-620 colon = test system: SW-620 colon
T-47D breast = test system: T-47D breast
TK-10 renal = test system: TK-10 renal
U251 CNS = test system: U251 CNS
UACC-257 melanoma = test system: UACC-257 melanoma
UACC-62 melanoma = test system: UACC-62 melanoma
UO-31 renal = test system: UO-31 renal
OVCAR-5 ovarian = test system: OVCAR-5 ovarian
OVCAR-4 ovarian = test system: OVCAR-4 ovarian

Structure (SMILES): COC1CC(C)(N)C(O)C(C)O1 (configuration not stated)
- TGI (786-0 renal): > 100 µM
- TGI (A498 renal): > 100 µM
- TGI (A549 NSCLC): > 100 µM
- TGI (ACHN renal): > 100 µM
- TGI (BT-549 breast): > 100 µM
- TGI (CAKI-1 renal): > 100 µM
- TGI (CCRF-CEM leukemia): > 100 µM
- TGI (COLO 205 colon): > 100 µM
- TGI (DU-145 prostate): > 100 µM
- TGI (EKVX NSCLC): > 100 µM
- TGI (HCC-2998 colon): > 100000 nM
- TGI (HCT-116 colon): > 100 µM
- TGI (HCT-15 colon): > 100 µM
- TGI (HL-60(TB) leukemia): > 100 µM
- TGI (HOP-62 NSCLC): > 100 µM
- TGI (HOP-92 NSCLC): > 100 µM
- TGI (HS 578T breast): > 100 µM
- TGI (HT29 colon): > 100 µM
- TGI (IGROV1 ovarian): > 100 µM
- TGI (K-562 leukemia): > 100 µM
- TGI (KM12 colon): > 100 µM
- TGI (LOX IMVI melanoma): > 100 µM
- TGI (M14 melanoma): > 100 µM
- TGI (MALME-3M melanoma): > 100 µM
- TGI (MCF7 breast): > 100 µM
- TGI (MDA-MB-231 breast): > 100 µM
- TGI (MDA-MB-435): > 100 µM
- TGI (MDA-N): > 100 µM
- TGI (MOLT-4 leukemia): > 100 µM
- TGI (NCI-H226 lung): > 100 µM
- TGI (NCI-H23 lung): > 100 µM
- TGI (NCI-H460 lung): > 100 µM
- TGI (NCI-H522 lung): > 100 µM
- TGI (NCI/ADR-RES ovarian): > 100 µM
- TGI (OVCAR-3 ovarian): > 100 µM
- TGI (OVCAR-8 ovarian): > 100 µM
- TGI (PC-3 prostate): > 100 µM
- TGI (RPMI-8226 leukemia): > 100000 nM
- TGI (RXF 393 renal): > 100 µM
- TGI (SF-268 CNS): > 100 µM
- TGI (SF-295 CNS): > 100 µM
- TGI (SF-539 CNS): > 100 µM
- TGI (SK-MEL-2 melanoma): > 100 µM
- TGI (SK-MEL-28 melanoma): > 100 µM
- TGI (SK-MEL-5 melanoma): > 100 µM
- TGI (SK-OV-3 ovarian): > 100 µM
- TGI (SN12C renal): > 100 µM
- TGI (SNB-19 CNS): > 100 µM
- TGI (SNB-75 CNS): > 100 µM
- TGI (SR leukemia): > 100 µM
- TGI (SW-620 colon): > 100 µM
- TGI (T-47D breast): > 100 µM
- TGI (TK-10 renal): > 100 µM
- TGI (U251 CNS): > 100 µM
- TGI (UACC-257 melanoma): > 100 µM
- TGI (UACC-62 melanoma): > 100 µM
- TGI (UO-31 renal): > 100 µM

Structure (SMILES): CN(C)CCNc1ccc2c(=O)n(CCN(C)C)c(=O)n3c4ccccc4c(=O)c1c23
- TGI (786-0 renal): 1.35 µM
- TGI (A498 renal): 0.554 µM
- TGI (A549 NSCLC): > 40.3 µM
- TGI (BT-549 breast): 5.7 µM
- TGI (CAKI-1 renal): 2.05 µM
- TGI (COLO 205 colon): 0.671 µM
- TGI (DU-145 prostate): 0.179 µM
- TGI (EKVX NSCLC): 2.56 µM
- TGI (HCC-2998 colon): 473 nM
- TGI (HCT-116 colon): 0.615 µM
- TGI (HL-60(TB) leukemia): 0.286 µM
- TGI (HOP-62 NSCLC): 0.265 µM
- TGI (HOP-92 NSCLC): 0.462 µM
- TGI (HS 578T breast): 3.65 µM
- TGI (HT29 colon): 1.68 µM
- TGI (IGROV1 ovarian): 0.982 µM
- TGI (KM12 colon): 1.14 µM
- TGI (LOX IMVI melanoma): 1.48 µM
- TGI (M14 melanoma): 1.81 µM
- TGI (MALME-3M melanoma): 1.93 µM
- TGI (MCF7 breast): 1.78 µM
- TGI (MDA-MB-231 breast): 0.682 µM
- TGI (MDA-MB-435): 0.537 µM
- TGI (MDA-N): 0.71 µM
- TGI (MOLT-4 leukemia): < 0.0201 µM
- TGI (NCI-H226 lung): 1.58 µM
- TGI (NCI-H23 lung): 0.565 µM
- TGI (NCI-H460 lung): 0.364 µM
- TGI (NCI-H522 lung): 0.58 µM
- TGI (NCI/ADR-RES ovarian): 5.5 µM
- TGI (OVCAR-3 ovarian): 2.81 µM
- TGI (OVCAR-5 ovarian): 5.03 µM
- TGI (OVCAR-8 ovarian): 8.78 µM
- TGI (PC-3 prostate): 7.09 µM
- TGI (RPMI-8226 leukemia): 61.6 nM
- TGI (RXF 393 renal): 0.688 µM
- TGI (SF-268 CNS): 0.482 µM
- TGI (SF-295 CNS): 0.516 µM
- TGI (SF-539 CNS): 0.272 µM
- TGI (SK-MEL-2 melanoma): 1.7 µM
- TGI (SK-MEL-28 melanoma): 5.26 µM
- TGI (SK-MEL-5 melanoma): 0.163 µM
- TGI (SK-OV-3 ovarian): 6.2 µM
- TGI (SN12C renal): 0.294 µM
- TGI (SNB-19 CNS): 7.12 µM
- TGI (SNB-75 CNS): 0.403 µM
- TGI (SR leukemia): 0.0298 µM
- TGI (SW-620 colon): 3.98 µM
- TGI (T-47D breast): 3.89 µM
- TGI (TK-10 renal): 4.31 µM
- TGI (U251 CNS): 3.63 µM
- TGI (UACC-257 melanoma): 1.62 µM
- TGI (UO-31 renal): 1.8 µM

Structure (SMILES): Cc1cc(C)c2c(=O)n(CN3CCC(C#N)(c4ccccc4)CC3)sc2n1
- TGI (786-0 renal): 52.6 µM
- TGI (A498 renal): > 100 µM
- TGI (A549 NSCLC): > 100 µM
- TGI (ACHN renal): 44.1 µM
- TGI (BT-549 breast): > 100 µM
- TGI (CAKI-1 renal): > 100 µM
- TGI (CCRF-CEM leukemia): > 100 µM
- TGI (COLO 205 colon): > 100 µM
- TGI (DU-145 prostate): > 100 µM
- TGI (EKVX NSCLC): > 100 µM
- TGI (HCT-116 colon): > 100 µM
- TGI (HCT-15 colon): > 100 µM
- TGI (HL-60(TB) leukemia): 49.7 µM
- TGI (HOP-62 NSCLC): > 100 µM
- TGI (HOP-92 NSCLC): > 100 µM
- TGI (HS 578T breast): > 100 µM
- TGI (HT29 colon): > 100 µM
- TGI (IGROV1 ovarian): > 100 µM
- TGI (K-562 leukemia): > 100 µM
- TGI (KM12 colon): > 100 µM
- TGI (LOX IMVI melanoma): 69.9 µM
- TGI (M14 melanoma): > 100 µM
- TGI (MALME-3M melanoma): 46.5 µM
- TGI (MCF7 breast): > 100 µM
- TGI (MDA-MB-231 breast): > 100 µM
- TGI (MDA-MB-435): 65.5 µM
- TGI (MDA-N): 80.3 µM
- TGI (MOLT-4 leukemia): > 100 µM
- TGI (NCI-H226 lung): > 100 µM
- TGI (NCI-H23 lung): > 100 µM
- TGI (NCI-H460 lung): > 100 µM
- TGI (NCI-H522 lung): 31.3 µM
- TGI (NCI/ADR-RES ovarian): > 100 µM
- TGI (OVCAR-3 ovarian): > 100 µM
- TGI (OVCAR-4 ovarian): 88.8 µM
- TGI (OVCAR-5 ovarian): 90.9 µM
- TGI (OVCAR-8 ovarian): 81.5 µM
- TGI (PC-3 prostate): > 100 µM
- TGI (RXF 393 renal): 48 µM
- TGI (SF-268 CNS): > 100 µM
- TGI (SF-295 CNS): > 100 µM
- TGI (SF-539 CNS): 98.3 µM
- TGI (SK-MEL-2 melanoma): > 100 µM
- TGI (SK-MEL-28 melanoma): > 100 µM
- TGI (SK-MEL-5 melanoma): > 100 µM
- TGI (SK-OV-3 ovarian): > 100 µM
- TGI (SN12C renal): > 100 µM
- TGI (SNB-19 CNS): > 100 µM
- TGI (SNB-75 CNS): 76.1 µM
- TGI (SR leukemia): > 100 µM
- TGI (SW-620 colon): 67.7 µM
- TGI (T-47D breast): > 100 µM
- TGI (TK-10 renal): 63.6 µM
- TGI (U251 CNS): > 100 µM
- TGI (UACC-257 melanoma): 44.6 µM
- TGI (UACC-62 melanoma): > 100 µM
- TGI (UO-31 renal): 34.1 µM
